Data reported in PubChem BioAssay AID563 (University of Pittsburgh Molecular Library Screening Center, 2006).
Active and inactive are the calls of the source. No rule for the calls is given here.

Target: Dual specificity protein phosphatase 1 (Homo sapiens) (UniProt P28562)
Assay: MKP-1 phosphatase inhibitors, repeat potency, dose response, biochemical, reproducibility testing, probe assessment (AID 563)
Conditions: recombinant MKP-1 phosphatase, fluorescence intensity

Sequence of Dual specificity protein phosphatase 1 (Homo sapiens) (P28562 whole entry, looked up): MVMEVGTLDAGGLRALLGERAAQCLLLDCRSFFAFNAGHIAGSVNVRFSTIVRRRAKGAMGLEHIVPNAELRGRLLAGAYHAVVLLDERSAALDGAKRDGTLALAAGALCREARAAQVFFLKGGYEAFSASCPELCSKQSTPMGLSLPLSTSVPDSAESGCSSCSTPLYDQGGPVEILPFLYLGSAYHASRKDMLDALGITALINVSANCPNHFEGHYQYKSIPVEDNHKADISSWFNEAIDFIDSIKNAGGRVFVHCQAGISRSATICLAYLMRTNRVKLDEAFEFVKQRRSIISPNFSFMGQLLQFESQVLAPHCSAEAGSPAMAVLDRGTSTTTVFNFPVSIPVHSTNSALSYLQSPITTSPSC

| SMILES | IC50 |
| --- | --- |
| CCOC(=O)c1ccc2c(c1)C1C=CCC1C(C(=O)O)N2 (stereo not drawn) | 32.8 µM |
| Cc1ccc(-c2csc(NC(=O)c3ccno3)n2)cc1 | 49.7 µM |
| Cc1cccc(N2CCN(C(=O)Cc3c(C(=O)O)[nH]c4ccc(Cl)cc34)CC2)c1C | 46.9 µM |
| CC(C)Sc1nc2sc3c(c2c2nnc(SCC(=O)NCc4ccco4)n12)CCCC3 | 22.8 µM |

Continued, values first:

| IC50 | SMILES |
| --- | --- |
| 37 µM | CCCCCNC(=O)c1ccc2c(=O)[nH]c3c(C(=O)NCC4CCCO4)sc(=S)n3c2c1 (stereo not drawn) |
| > 50 µM (inactive) | O=C1C(C2=C(O)c3ccccc3C2=O)=Nc2ccccc21 |
| 17.1 µM | Cc1ccc(C)n1-c1cccc(C(=O)O)c1 |
| 49.8 µM | Cc1nc2c(C(=O)NCCC3=CCCCC3)c[nH]n2c(=O)c1Cl |
